Columns and labels:
Assay type in all cases: cell-based, human
PBMC [1] = assay: IFN-γ ELISpot on PBMC of CD patients after combined wheat, barley, and rye challenge
Excerpt: Australian Caucasian HLA-DQ2.5^+ and/or HLA-DQ8^+ CD subjects were recruited by advertisement in the Coeliac Society of Victoria newsletter and all had biopsy-proven CD conforming to ESPGHAN criteria. Patients had been on strict gluten free diet for at least 4 weeks prior to commencing grain challenge. Patients underwent 3-day grain challenge with oats, barley, or combined wheat, barley, and rye muffins, and 6 days after commencement, blood was collected. Day 0 responses were not observed in the selection of patients tested, as described previously^8.
Oats challenge consisted of 100 g dry weight daily of one of three commercial brands of oats: one not tested for wheat contamination (Uncle Toby's; Oats #1), and two shown by R5 ELISA to contain less than 20 ppm wheat gluten (Tilquhilie Pudding; Oats #2 and Freedom Food; Oats #3). Barley challenge consisted of pearl barley (Ward McKenzie) cooked into a risotto (150 g dry weight daily) and the wheat challenge consisted of four 50 g slices of wheat bread daily (Baker's Delight white loaf cut to toasting thickness). The combined wheat, barley, and rye challenge consisted of muffins baked with wheat flour (White Wings), barley flour (Four Leaf Milling), and rye flour (Four Leaf Milling; 22-25 g dry weight each daily). A symptom diary based on a […] Likert scale was completed by participants daily from baseline until day 6.
Two avenin peptide libraries were utilized for epitope screening. These were designed using avenin sequences from GenBank and a customized algorithm, as previously described^9. The initial library consisted of 199 screening-grade 20 mers including all possible 12 mers (Mimotopes). This library was screened with and without tTG pre-treatment. The second library consisted of additional avenin sequences that were synthesized with glutamate substitution at sites predicted to be deamidated by published algorithms^10, 11 removing the requirement for tTG treatment. This library contained 369 screening-grade 20 mers, including all possible 12 mers (Pepscan). The second round avenin library contained wild-type and deamidated versions of the most immunogenic sequences (25 high quality 16 mers from Mimotopes). High quality peptides containing previously described immunogenic sequences from wheat, barley, and rye were used to test for cross-reactivity^8 (Pepscan). High quality hordein and avenin peptides for TCC testing and biochemical studies were ordered from Pepscan, Mimotopes, or GL Biochem.
Peripheral blood mononuclear cells (PBMC) were isolated from heparinized whole blood using Ficoll-Paque™ Plus density-gradient centrifugation (GE Healthcare). IFN-γ ELISpot (Mabtech) was set up as previously described^8.

PBMC [2] = assay: IFN-γ ELISpot on PBMC of CD patients after 3-day barley challenge; settings: for response following barley challenge: 3 oats responders, titrating concentrations (FIG. 1b); for patients responding following pure barley challenge: 3 patients that had previously responded to avenin peptides following oats challenge
Procedure, shortened: (§1)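 PBMC from HLA-DQ2.5+/DQ8+ biopsy-proven coeliac patients on gluten-free diet ≥4 weeks, collected on day 6 after starting a 3-day oral challenge (oats 100 g/day, barley 150 g/day, or wheat/barley/rye muffins 22-25 g each daily). Responses to avenin, hordein and gluten peptide libraries, some deamidated or tTG-treated, measured by IFN-γ ELISpot.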

Patient 9 TCC-02 = assay: IFN-γ ELISpot with T cell clone; settings: TCC Patient 9 TCC-02, peptide 50 μg/mL
Procedure, shortened: (§2)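 Clone specificity was assessed by IFN-γ ELISpot, using irradiated HLA-matched PBMC for antigen presentation.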

Patient 10 TCC-01 = assay: IFN-γ ELISpot with T cell clone; settings: TCC Patient 10 TCC-01, peptide 50 μg/mL
Procedure, shortened: as §2

Patient 2 TCC-02 = assay: IFN-γ ELISpot with T cell clone; settings: TCC Patient 2 TCC-02, peptide 25 μg/mL
Procedure, shortened: as §2

Patient 9 TCC-01 = assay: IFN-γ ELISpot with T cell clone; settings: TCC Patient 9 TCC-01, peptide 50 μg/mL
Procedure, shortened: as §2

Patient 2 TCC-03 = assay: IFN-γ ELISpot with T cell clone; settings: TCC Patient 2 TCC-03, peptide 25 μg/mL
Procedure, shortened: as §2

Patient 6 TCC-01 = assay: IFN-γ ELISpot with T cell clone
Procedure, shortened: as §2

Patient 8 TCC-01 = assay: IFN-γ ELISpot with T cell clone; settings: TCC Patient 8 TCC-01, peptide 25 μg/mL
Procedure, shortened: as §2

Patient 2 TCC-01 = assay: IFN-γ ELISpot with T cell clone
Procedure, shortened: as §2

Patient 14 TCC-01 = assay: IFN-γ ELISpot with T cell clone; settings: TCC Patient 14 TCC-01, peptide 50 μg/mL
Procedure, shortened: as §2

PBMC [3] = assay: IFN-γ ELISpot on PBMC of CD patients on day 6 after 3-day oats challenge
Procedure, shortened: as §1

[4] = 19 HLA-DQ2.5+ CD patients, peptide 10 μg/mL (FIG. 1a)
[5] = Patient 1, peptide 25 μg/ml, after barley challenge
[6] = Patient 2, peptide 25 μg/ml, after barley challenge
[7] = Patient 3, peptide 25 μg/ml, after barley challenge
[8] = TCC Patient 6 TCC-01, peptide 25 μg/mL
[9] = TCC Patient 6 TCC-01, peptide 50 μg/mL
[10] = TCC Patient 2 TCC-01, peptide 25 μg/mL
[11] = TCC Patient 2 TCC-01, peptide 50 μg/mL

## PEQPIPEQPQPYPQQ
PBMC [1]; [4]
  patients that did not respond to either peptide: 9 patients
  patients that responded to both peptides: 8 patients
  patients that responded to the hordein peptide but not the avenin peptide: 2 patients
PBMC [1]; combined wheat, barley, and rye challenge
  responses compared with AAB32025 (7-21) [Q7 to pyroE, Q15 to E, and Q21 to Q-amide] responses: generally higher
PBMC [2]
  response following barley challenge: responded to all three peptides to varying degrees
  patients responding following pure barley challenge: All three patients responded
PBMC [2]; [5]
  IFN-γ ELISpot response (raw SFU): 317 SFU
  significant SFU as a percentage of maximal peptide SFU: *** (***: >70%)
PBMC [2]; [6]
  IFN-γ ELISpot response (raw SFU): 162 SFU
  significant SFU as a percentage of maximal peptide SFU: *** (***: >70%)
PBMC [2]; [7]
  IFN-γ ELISpot response (raw SFU): 142 SFU
  significant SFU as a percentage of maximal peptide SFU: *** (***: >70%)
PBMC [2]; third patient, after barley challenge (FIG. 1b)
  responses compared with DQ2.5-ave-1c responses: slightly lower
Patient 9 TCC-02
  IFN-γ ELISpot response (raw SFU): 2 SFU
Patient 10 TCC-01
  IFN-γ ELISpot response (raw SFU): 3 SFU
Patient 2 TCC-02
  IFN-γ ELISpot response (SFU): 1 SFU
Patient 9 TCC-01
  IFN-γ ELISpot response (raw SFU): 4 SFU
Patient 2 TCC-03
  IFN-γ ELISpot response (SFU): 156 SFU
  significant SFU as a percentage of maximal peptide SFU: *** (***: >70%)
Patient 6 TCC-01; [8]
  IFN-γ ELISpot response (SFU): 107 SFU
  significant SFU as a percentage of maximal peptide SFU: *** (***: >70%)
Patient 6 TCC-01; [9]
  IFN-γ ELISpot response (raw SFU): 86 SFU
  significant SFU as a percentage of maximal peptide SFU: *** (***: >70%)
Patient 8 TCC-01
  IFN-γ ELISpot response (SFU): 143 SFU
  significant SFU as a percentage of maximal peptide SFU: *** (***: >70%)
Patient 2 TCC-01; [10]
  IFN-γ ELISpot response (SFU): 1 SFU
Patient 2 TCC-01; [11]
  IFN-γ ELISpot response (raw SFU): 1 SFU
Patient 14 TCC-01
  IFN-γ ELISpot response (raw SFU): 48 SFU
  significant SFU as a percentage of maximal peptide SFU: ** (**: 40-70%)

## YQPYPEQEQPILQQ
PBMC [1]; [4]
  patients that did not respond to either peptide: 9 patients
  patients that responded to both peptides: 8 patients
PBMC [2]; 2/3 patients, after barley challenge (FIG. 1b)
  responses compared with DQ2.5-hor-3a responses: lower
PBMC [2]
  response following barley challenge: responded to all three peptides to varying degrees
  patients responding following pure barley challenge: All three patients responded
PBMC [2]; [5]
  IFN-γ ELISpot response (raw SFU): 59 SFU
  significant SFU as a percentage of maximal peptide SFU: ^^ (^^: 10-20%)
PBMC [2]; [6]
  IFN-γ ELISpot response (raw SFU): 204.5 SFU
  significant SFU as a percentage of maximal peptide SFU: *** (***: >70%)
PBMC [2]; [7]
  IFN-γ ELISpot response (raw SFU): 26 SFU
  significant SFU as a percentage of maximal peptide SFU: ^^ (^^: 10-20%)
PBMC [2]; after barley challenge
  patients with lower polyclonal T cell responses compared with 1103203A (31-45) peptide: 2/3
Patient 9 TCC-02
  IFN-γ ELISpot response (raw SFU): 2 SFU
Patient 10 TCC-01
  IFN-γ ELISpot response (raw SFU): 5 SFU
Patient 2 TCC-02
  IFN-γ ELISpot response (SFU): 145 SFU
  significant SFU as a percentage of maximal peptide SFU: ** (**: 40-70%)
Patient 9 TCC-01
  IFN-γ ELISpot response (raw SFU): 4 SFU
Patient 2 TCC-03
  IFN-γ ELISpot response (SFU): 1 SFU
Patient 6 TCC-01; [8]
  IFN-γ ELISpot response (SFU): 3 SFU
Patient 6 TCC-01; [9]
  IFN-γ ELISpot response (raw SFU): 2 SFU
Patient 8 TCC-01
  IFN-γ ELISpot response (SFU): 114 SFU
  significant SFU as a percentage of maximal peptide SFU: ** (**: 40-70%)
Patient 2 TCC-01; [10]
  IFN-γ ELISpot response (SFU): 238 SFU
  significant SFU as a percentage of maximal peptide SFU: *** (***: >70%)
Patient 2 TCC-01; [11]
  IFN-γ ELISpot response (raw SFU): 300 SFU
  significant SFU as a percentage of maximal peptide SFU: *** (***: >70%)
Patient 14 TCC-01
  IFN-γ ELISpot response (raw SFU): 18 SFU
PBMC [3]; three additional patients that responded to the peptide after barley challenge
  response following oats challenge: did not respond
PBMC [3]; three patients that responded after the combined grain challenge
  response after previous oats challenge: no responses

From patent US20160238590A1, “COMPOSITIONS AND METHODS RELATED TO OAT SENSITIVITY” (IMMUSANT, INC., priority 2013, published 2016)
